How the values were obtained:
DC2.4 cells = assay: In vitro transfection of cells with eGFP-mRNA lipid nanoparticle (LNP preparation), fluorescence imaging and flow cytometry; format: cell-based, mouse; details: eGFP positivity rate, DC2.4 cells, 200 ng of mRNA per well, after 24 hours
Procedure, shortened: (§1)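 Mouse bone marrow-derived DC2.4 dendritic cells seeded at 2 × 10^5 cells/well in DMEM with 10% FBS, transfected with eGFP-mRNA LNPs the next day at 37 °C, 5% CO2. After 24 hours, viability, eGFP-positive rate and mean fluorescence intensity read by fluorescence imaging and flow cytometry.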

[1] = as above; format: cell-based, mouse; details: mouse, dc2.4 cells, 200 ng of mRNA per well, after 24 hours; read-out: Cell viability, %
Procedure, shortened: as §1

[2] = Encapsulation efficiency of the lipid nanoparticle (eGFP mRNA) by Ribogreen method; format: physicochemical; details: LNP encapsulating eGFP mRNA, ionizable lipid/DOPE/cholesterol/DMG-PEG2000 50/10/48.25/1.25 mol%, N/P 12
Procedure, shortened: (§2)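 LNPs were made by microfluidic mixing of ionizable lipid/DOPE/cholesterol/DMG-PEG2000 (50/10/48.25/1.25 mol%) in ethanol with eGFP mRNA in 20 mM citrate pH 6.1, N/P 12, then ultrafiltered into DPBS and 0.2 µm filtered. Size and PDI by DLS at 173° backscatter; encapsulation by Ribogreen.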

[3] = Size and polydispersity index (PDI) of the lipid nanoparticle by dynamic light scattering; format: physicochemical; details: LNP encapsulating eGFP mRNA, ionizable lipid/DOPE/cholesterol/DMG-PEG2000 50/10/48.25/1.25 mol%, N/P 12; for Particle size: in nm (unit assumed)
Procedure, shortened: as §2

SMILES	Positive rate, % (DC2.4 cells) [%]	viability at 24 h [1] [%]	Encapsulation rate, % [2] [%]	PDI [3]	Particle size [3]
CCCCCCCCCCCCCOC(=O)CCCN(CCO)CCCN(CCCC(=O)OCCCCCCCCCCCCC)CCCC(=O)OCCCCCCCCCCCCC [Example 62, Ditridecyl 4,4'-((3-((2-hydroxyethyl)(4-oxo-4-(tridecyloxy)butyl)amino)propyl)azanediyl)dibutanoate]	96.24	59	99.32	0.16	99.80
CCCCCCCCCCCCCOC(=O)CCCN(CCCO)CCCN(CCCC(=O)OCCCCCCCCCCCCC)CCCC(=O)OCCCCCCCCCCCCC [Example 63, Ditridecyl 4,4'-((3-((3-hydroxypropyl)(4-oxo-4-(tridecyloxy)butyl)amino)propyl)azanediyl)dibutanoate]	92.85	63.4	97.68	0.15	84.74
CCCCCCCCCCCOC(=O)CCCN(CCCO)CCCN(CCCC(=O)OCCCCCCCCCCC)CCCC(=O)OCCCCCCCCCCC [Example 64, Diundecyl 4,4'-((3-((3-hydroxypropyl)(4-oxo-4-(undecyloxy)butyl)amino)propyl)azanediyl)dibutanoate]	99.18	64.6	98.93	0.19	90.58
CCCCCCCCCCCCCOC(=O)CCCN(CCCCO)CCCN(CCCC(=O)OCCCCCCCCCCCCC)CCCC(=O)OCCCCCCCCCCCCC [Example 65, Ditridecyl 4,4'-((3-((4-hydroxybutyl)(4-oxo-4-(tridecyloxy)butyl)amino)propyl)azanediyl)dibutanoate]	96.80	60.3	96.31	0.20	90.10
CCCCCCCCCCCOC(=O)CCCN(CCCCO)CCCN(CCCC(=O)OCCCCCCCCCCC)CCCC(=O)OCCCCCCCCCCC [Example 66, Diundecyl 4,4'-((3-((4-hydroxybutyl)(4-oxo-4-(undecyloxy)butyl)amino)propyl)azanediyl)dibutanoate]	98.63	76.7	94.12	0.14	
CCCCCCCCCCCOC(=O)CCN(CCO)CCCN(CCC(=O)OCCCCCCCCCCC)CCC(=O)OCCCCCCCCCCC [Example 67, Diundecyl 3,3'-((3-((2-hydroxyethyl)(3-oxo-3-(undecyloxy)propyl)amino)propyl)azanediyl)dipropionate]	98.32	95.8	66.08	0.20	86.08
CCCCCCCCCCCOC(=O)CCN(CCCO)CCCN(CCC(=O)OCCCCCCCCCCC)CCC(=O)OCCCCCCCCCCC [Example 68, Diundecyl 3,3'-((3-((3-hydroxypropyl)(3-oxo-3-(undecyloxy)propyl)amino)propyl)azanediyl)dipropionate]	98.77	94.9	95.99	0.18	
CCCCCCCCCCCOC(=O)CCN(CCCCO)CCCN(CCC(=O)OCCCCCCCCCCC)CCC(=O)OCCCCCCCCCCC [Example 69, Diundecyl 3,3'-((3-((4-hydroxybutyl)(3-oxo-3-(undecyloxy)propyl)amino)propyl)azanediyl)dipropionate]	97.10	91.9	85.47	0.13	
CCCCCCCCCCCCCOC(=O)CCN(CCO)CCCN(CCC(=O)OCCCCCCCCCCCCC)CCC(=O)OCCCCCCCCCCCCC [Example 70, Ditridecyl 3,3'-((3-((2-hydroxyethyl)(3-oxo-3-(tridecyloxy)propyl)amino)propyl)azanediyl)dipropionate]	99.07	91.2	97.26	0.11	
CCCCCCCCCCCCCOC(=O)CCN(CCCO)CCCN(CCC(=O)OCCCCCCCCCCCCC)CCC(=O)OCCCCCCCCCCCCC [Example 71, Ditridecyl 3,3'-((3-((3-hydroxypropyl)(3-oxo-3-(tridecyloxy)propyl)amino)propyl)azanediyl)dipropionate]	98.99	97.3	98.30	85.88	98.30
CCCCCCCCCCCCCOC(=O)CCN(CCCCO)CCCN(CCC(=O)OCCCCCCCCCCCCC)CCC(=O)OCCCCCCCCCCCCC [Example 72, Ditridecyl 3,3'-((3-((4-hydroxybutyl)(3-oxo-3-(tridecyloxy)propyl)amino)propyl)azanediyl)dipropionate]	81.19	84	99.70		99.70
CCCCCCCCCCCOC(=O)CN(CCO)CCCN(CC(=O)OCCCCCCCCCCC)CC(=O)OCCCCCCCCCCC [Example 73, Diundecyl 2,2'-((3-((2-hydroxyethyl)(2-oxo-2-(undecyloxy)ethyl)amino)propyl)azanediyl)diacetate]	97.94	84.1	85.54		85.54
CCCCCCCCCCCOC(=O)CN(CCCO)CCCN(CC(=O)OCCCCCCCCCCC)CC(=O)OCCCCCCCCCCC [Example 74, Diundecyl 2,2'-((3-((3-hydroxypropyl)(2-oxo-2-(undecyloxy)ethyl)amino)propyl)azanediyl)diacetate]	91.81	71	96.91		96.91
CCCCCCCCCCCOC(=O)CN(CCCCO)CCCN(CC(=O)OCCCCCCCCCCC)CC(=O)OCCCCCCCCCCC [Example 75, Diundecyl 2,2'-((3-((4-hydroxybutyl)(2-oxo-2-(undecyloxy)ethyl)amino)propyl)azanediyl)diacetate]	91.29	90.3	99.22	60.95	99.22
CCCCCCCCCCCCCOC(=O)CN(CCO)CCCN(CC(=O)OCCCCCCCCCCCCC)CC(=O)OCCCCCCCCCCCCC [Example 76, Ditridecyl 2,2'-((3-((2-hydroxyethyl)(2-oxo-2-(tridecyloxy)ethyl)amino)propyl)azanediyl)diacetate]	98.01	95	96.23		74.60
CCCCCCCCCCCCCOC(=O)CN(CCCO)CCCN(CC(=O)OCCCCCCCCCCCCC)CC(=O)OCCCCCCCCCCCCC [Example 77, Ditridecyl 2,2'-((3-((3-hydroxypropyl)(2-oxo-2-(tridecyloxy)ethyl)amino)propyl)azanediyl)diacetate]	90.71	83.9	99.78	70.33	99.78
CCCCCCCCCCCCCOC(=O)CN(CCCCO)CCCN(CC(=O)OCCCCCCCCCCCCC)CC(=O)OCCCCCCCCCCCCC [Example 78, Ditridecyl 2,2'-((3-((4-hydroxybutyl)(2-oxo-2-(tridecyloxy)ethyl)amino)propyl)azanediyl)diacetate]	81.35	91.7	99.86	53.66	99.86

Reference: EP4678629A1, “IONIZABLE LIPID MOLECULE, PREPARATION METHOD THEREFOR AND USE THEREOF” (Maxirna (Shanghai) Pharmaceutical Co., Ltd., priority 2023, dated 2024)
